Source: the supplement of paper PMC10307832

Tests used:
Test in all cases: relative viability (nuclei count vs DMSO), 5 days (fraction); higher = more cells survive
4EGI-1 + Linsitinib = compound: O=C(O)C(Cc1ccccc1[N+](=O)[O-])=NNc1nc(-c2ccc(Cl)c(Cl)c2)cs1 (mixture of isomers) [4EGI-1] + C[C@]1(O)C[C@@H](c2nc(-c3ccc4ccc(-c5ccccc5)nc4c3)c3c(N)nccn32)C1 [Linsitinib] (partner 1 µM)
Procedure, shortened: (§1)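 Lung cancer cell lines in 1536-well plates were dosed by pin tool the day after seeding, either with one drug alone or with a fixed anchor-drug dose plus five library-drug doses (not always all listed) in √10 steps. After 5 days, cells were fixed and their nuclei stained in one step (final 0.05% Triton X-100, 1% formaldehyde, 1 ug/ml Hoechst), then counted on 4× images. Relative viability is the nuclei count in treated wells divided by that in vehicle wells. Values are medians of duplicate plates.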

4EGI-1 + Navitoclax = compound: O=C(O)C(Cc1ccccc1[N+](=O)[O-])=NNc1nc(-c2ccc(Cl)c(Cl)c2)cs1 (mixture of isomers) [4EGI-1] + CC1(C)CCC(c2ccc(Cl)cc2)=C(CN2CCN(c3ccc(C(=O)NS(=O)(=O)c4ccc(N[C@H](CCN5CCOCC5)CSc5ccccc5)c(S(=O)(=O)C(F)(F)F)c4)cc3)CC2)C1 [Navitoclax] (partner 0.5 µM)
Procedure, shortened: as §1

XMD8-85 + Tozasertib = compound: CN1CCN(CC1)C2=CC(=C(C=C2)NC3=NC=C4C(=N3)N(C5=CC=CC=C5C(=O)N4C)C)OC [XMD8-85] + Cc1cc(Nc2cc(N3CCN(C)CC3)nc(Sc3ccc(NC(=O)C4CC4)cc3)n2)n[nH]1 [Tozasertib] (partner 0.1 µM)
Procedure, shortened: as §1

4EGI-1 + Palbociclib = compound: O=C(O)C(Cc1ccccc1[N+](=O)[O-])=NNc1nc(-c2ccc(Cl)c(Cl)c2)cs1 (mixture of isomers) [4EGI-1] + CC(=O)c1c(C)c2cnc(Nc3ccc(N4CCNCC4)cn3)nc2n(C2CCCC2)c1=O [Palbociclib] (partner 0.5 µM)
Procedure, shortened: as §1

| Cell Line | relative viability (4EGI-1 + Linsitinib; first compound 0.5 µM) | relative viability (4EGI-1 + Linsitinib; first compound 1.581 µM) | relative viability (4EGI-1 + Linsitinib; first compound 5 µM) | relative viability (4EGI-1 + Linsitinib; first compound 15.81 µM) | relative viability (4EGI-1 + Linsitinib; first compound 50 µM) | relative viability (4EGI-1 + Navitoclax; first compound 0.5 µM) | relative viability (4EGI-1 + Navitoclax; first compound 1.581 µM) | relative viability (4EGI-1 + Navitoclax; first compound 5 µM) | relative viability (4EGI-1 + Navitoclax; first compound 15.81 µM) | relative viability (4EGI-1 + Navitoclax; first compound 50 µM) | relative viability (XMD8-85 + Tozasertib; first compound 0.08 µM) | relative viability (XMD8-85 + Tozasertib; first compound 0.253 µM) | relative viability (XMD8-85 + Tozasertib; first compound 0.8 µM) | relative viability (XMD8-85 + Tozasertib; first compound 2.53 µM) | relative viability (XMD8-85 + Tozasertib; first compound 8 µM) | relative viability (4EGI-1 + Palbociclib; first compound 0.5 µM) | relative viability (4EGI-1 + Palbociclib; first compound 1.581 µM) | relative viability (4EGI-1 + Palbociclib; first compound 5 µM) | relative viability (4EGI-1 + Palbociclib; first compound 15.81 µM) | relative viability (4EGI-1 + Palbociclib; first compound 50 µM) |
| --- | --- | --- | --- | --- | --- | --- | --- | --- | --- | --- | --- | --- | --- | --- | --- | --- | --- | --- | --- | --- |
| IA-LM | 0.536 | 0.492 | 0.649 | 0.251 | 0.163 | 0.889 | 0.751 | 0.444 | 0.112 | 0.0676 | – | – | – | – | – | – | – | – | – | – |
| LC-2-ad | 0.897 | 0.764 | 0.83 | 0.432 | 0.13 | 0.536 | 0.486 | 0.398 | 0.25 | 0.0791 | 0.411 | 0.429 | 0.47 | 0.33 | 0.34 | 0.49 | 0.514 | 0.469 | 0.417 | 0.305 |
| LCLC-97TM1 | 0.161 | – | 0.203 | 0.198 | 0.165 | 0.57 | – | 0.408 | 0.374 | 0.267 | 0.278 | 0.23 | 0.225 | 0.225 | 0.168 | 0.224 | – | 0.227 | 0.177 | 0.123 |
| LCLC-103H | 1.09 | 0.994 | 0.955 | 1.03 | 0.887 | – | – | – | – | – | 0.451 | 0.449 | 0.581 | 0.45 | 0.383 | 0.495 | 0.49 | 0.503 | 0.457 | 0.347 |
| LK-2 | 0.587 | 0.357 | 0.777 | 0.604 | 0.549 | 1.18 | – | 1.16 | 1.14 | 0.877 | – | 0.156 | 0.188 | 0.158 | 0.181 | 0.692 | – | 0.639 | 0.803 | 0.539 |
